Reference: patent publication US4851386A, “Method of treating precocious puberty” (Roussel Uclaf, priority 1979, dated 1989)

How the values were obtained:
[1] = tested on: testicular steroidogensis; test: Inhibitory activity against testicular steroidogenesis in men in good health, single intranasal administration; format: in vivo; conditions: for seric steroid/testosterone level on the fourth day after administration: fourth day (until 6th day)
Protocol: The inhibitory activity of [D Ser (tbu)^6 des GlyNH2^10 ] LH-RH ethylamide (described in German application Ser. No. 2,438,350) against testicular steroidogensis in men in good health was determined on men in good health aged 30 to 40 years. The said product was administered intranasally at a dose of 500 μg in a few drops of distilled water at 8 A.M. on the third day of the test. For 2 days prior to the treatment and for 6 days after the treatment, samples of blood were taken daily at 8 A.M., 3 P.M. and 10 P.M. On the day of administration of the LH--RH agonist, blood samples were taken at 11 A.M. and 6 P.M.
The seric concentrations of LH and FSH were measured by radioimmuno-logic dosages with double antibodies and the antibodies for measuring LH and FSH were furnished by the National Pituitary Agency of N.I.H. in Bethesda, Md. The seric concentrations of steroids was measured by radioimmuno-logic dosages in which one ml of serum was extracted with ether and the steroids were separated on a LH-20 column before measuring with radioimmuno-logic dosages. The radioimmuno-logic dosage results were determined by a program derived from model II of Rodbard et al [Second Karolinska Symposium on Research Methods in Reproductive Endrocinology, Diczfalusky Editor, Copenhague (1970), p. 79-103]. The statistical significance was determined by the "multiple level test" of Duncan-Kramer [Kramer, Biometrics, Vol 12 (1956), p. 307]. The results are shown in the graphs on sheet 1 of the Figures filed herewith.

[2] = tested on: ovarian steroidogenosis; test: Inhibitory activity on ovarian steroidogenesis in women with normal menstrual cycles; format: in vivo
Protocol: The inhibitory activity of [D Ser (tbu)^6 des GlyNH2^10 ] LH-RH ethylamide on ovarian steroidogenosis in women was determined on 6 women aged 26 to 35 years with normal and regular menstrual cycles and without prior endocrinal or gynecological problems. The study was conducted for 6 consecutive cycles consisting of 2 pretreatment cycles, 2 treatment cycles and 2 post-treatment cycles. Two drops of a solution containing 500 μg of [D Ser (tbu)^6 des GlyNH2^10 ] LH--RH ethylamide were deposited on each nostril at 8 A.M. and 5 P.M. of a day between the 4th and 9th day after the peak of LH-day 0. Daily blood samples were taken between 4 and 6 P.M. to measure seric levels of LH, FSH, progesterone and estradiol which were determined by radioimmuno-logictests with double antibodies. The antibodies to measure LH and FSH were furnished by the National Pituitory Agency of N.I.H. of Bethesda, Md.
Estradiol and progesterone were measured with highly specific antibodies developed against 7-(O-carboxymethyl)-oxime of estradiol and 12-(O-carboxymethyl)-oxime of progesterone, respectively [3H] 17β-estradiol and ^125 I-progesterone-12-[O-carboxymethyl)-oxime]used as tracers. The serum was extracted with benzene and the steroids were separated with a LH-20 column before the determination. The radioimmunological results were exploited by the program derived from model II of Rodbard and Lewald as in Example 1 and the statistical significance was measured by the multiple level test of Ducan-Kramer of Example 1. The results are shown in the graphs of sheets 3 to 5 of the Figures.

[3] = human, single intranasal dose 500 μg
[4] = 500 μg intranasal at 8 A.M. and 5 P.M. of one day in luteal phase, typical subject (sheet 3)

CCNC(=O)[C@@H]1CCCN1C(=O)[C@H](CCCNC(=N)N)NC(=O)[C@H](CC(C)C)NC(=O)[C@@H](COC(C)(C)C)NC(=O)[C@H](Cc1ccc(O)cc1)NC(=O)[C@H](CO)NC(=O)[C@H](Cc1c[nH]c2ccccc12)NC(=O)[C@H](Cc1c[nH]cn1)NC(=O)[C@@H]1CCC(=O)N1 [[D Ser (tbu)^6 des GlyNH2^10] LH-RH ethylamide]
duration of the drop of seric levels of testicular steroids (testosterone and precursors) [1, 3]: 3 days
seric steroid/testosterone level on the fourth day after administration [1, 3]: return to normal levels
seric steroid/testosterone level on the fourth day after administration ([1]; human, single intranasal dose 500 μg, listed as [D Ser (tbu)^6 des Gly NH2^10 ] LH-RH ethylamide): the level returned to normal
overall effect on testicular steroidogenesis ([1]; man, intranasal 500 μg): inhibition of testicular steroidogenesis
reduction of seric levels of progesterone compared to controls, first cycle of treatment [2, 4]: 13%
reduction of seric levels of progesterone compared to controls, second cycle of treatment [2, 4]: 34%
progesterone level of post-treatment cycles, pretreatment cycles = 100% ([2]; 12 cycles): 99%
progesterone level of treatment cycles, pretreatment cycles = 100% ([2]; 12 cycles): 46%
level of progesterone reduced by, compared to the controls ([2]; 12 cycles, sheet 5): 46%
course of seric progesterone level in the 2 cycles of treatment ([2]; sheet 4, return to normal for the 2 post-treatment cycles): accelerated diminution
